Laboratory results from patent EP2002838A1, “Use of aryl and hetaryl amide derivatives as modulators of an EP2 receptor” (Bayer Schering Pharma AG, priority 2007, dated 2008).

Assays:
Kumulus-Eizell Komplexe = assay: Cumulus expansion test in vitro; type: cell-based, Mäuse; conditions: competition with PGE2
Text: In immaturen weiblichen Mäusen (Stamm : CD1 (ICR) von Charles River) wird in einem Alter von 14-18 Tagen die Follikulogenese durch eine einmalige Gabe (intraperitoneal) von 10 1.E. PMSG (Pregnant Mare Serum Gonadotropine; Sigma G-4877, Lot 68H0909) induziert. 47 - 50 Stunden nach der Injektion werden die Ovarien entnommen und die Kumulus-Eizell Komplexe entnommen. Der Kumulus Komplex ist in diesem Stadium noch nicht expandiert. Die Kumulus-Eizell Komplexe werden nun für 20 - 24 Stunden mit Prostaglandin E2 (PGE2) (0,3 µM), Vehikel Kontrolle (Ethanol) oder Testsubstanzen inkubiert. Medium: alpha- MEM Medium mit 0,1 mM IBMX, Pyruvate (0,23 mM) Glutamine (2 mM), Pen/Strep 100 IU/ml Pen. und 100 µg/ml Strep.) und HSA (8 mg/ml)). Danach wird die Kumulus Expansion durch die Einteilung in vier Stadien (nach Vanderhyden et al. Dev Biol. 1990 Aug;140(2):307-317) festgestellt. Tabelle 1: Beispiel für die biologische Wirksamkeit der erfindungsgemäßen Verbindungen (gemessen mittels cAMP Antagonismustest): […]

[1] = target: T1, EP2-Subtyp des humanen PGE2-Rezeptors (Homo sapiens, UniProt P43116); assay: cAMP antagonism test (cellular, HTRF cAMP detection, PGE2 stimulation); type: cell-based; conditions: cAMP Antagonismustest; in presence of agonist PGE2; read-out: Antagonismus [IC50
T1 construct: host or cells: cells in a culture plate
T1 sequence (P43116 whole entry): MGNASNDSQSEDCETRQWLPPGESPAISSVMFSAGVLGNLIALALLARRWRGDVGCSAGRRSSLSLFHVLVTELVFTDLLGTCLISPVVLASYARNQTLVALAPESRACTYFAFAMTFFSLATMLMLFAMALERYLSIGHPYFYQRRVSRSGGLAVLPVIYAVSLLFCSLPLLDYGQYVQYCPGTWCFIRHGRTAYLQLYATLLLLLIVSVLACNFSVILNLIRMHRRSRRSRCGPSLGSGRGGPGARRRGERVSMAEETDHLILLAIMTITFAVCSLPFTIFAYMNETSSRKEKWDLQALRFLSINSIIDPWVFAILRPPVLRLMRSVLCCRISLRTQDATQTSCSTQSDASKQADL
Text: Die Bindung von PGE2 an den EP2-Subtyp des humanen PGE2-Rezeptors induziert die Aktivierung membranständiger Adenylatzyklasen und führt zur Bildung von cAMP. In Gegenwart des Phosphodiesteraseinhibitors IBMX wird das durch diese Stimulation akkumulierte und mittels Zell-Lyse freigesetzte cAMP in einem kompetitiven Nachweisverfahren eingesetzt. In diesem Test konkurriert das cAMP im Lysat mit cAMP-XL665 um die Bindung eines Eu-Kryptat markierten Anti-cAMP Antikörpers. Dabei entsteht in Abwesenheit von zellulärem cAMP ein maximales Signal, welches auf der Kopplung dieses Antikörpers an das cAMP-XL665 Molekül beruht. Dadurch entsteht nach Anregung bei 337 nm ein auf FRET (fluorescence resonance energy transfer) basierendes, langanhaltendes Emissionssignal bei 665 nm (und bei […]). Beide Signale werden in einem geeigneten Messgerät zeitlich versetzt, d.h. nach Abklingen der Hintergrundsfluoreszenz gemessen. Jegliche Erhöhung des durch Prostglandin-E2-Gabe bedingten niedrigen FRET-Signals (gemessen als Well-Ratio-Veränderung = Emission665nm/Emission620nm * 10000) zeigt die Wirkung von Antagonisten.
Die in einer Testplatte und 30 % DMSO vorgelegten Substanzlösungen (0.75 µl) werden in 16 µl einer KRSB+IBMX-Stimulationslösung gelöst (1 X Krebs-Ringer Bicarbonate Buffer; Sigma-Aldrich # K-4002; inklusive 750 µM 3-Isobutyl-1-methylxanthine Sigma-Aldrich # I-7018), anschließend werden 15 µl davon in eine medienfreie Zellkulturplatte überführt, die kurz zuvor mit KRSB gewaschen worden war.
Nach einer 30-minütigen Vorinkubation bei Raumtemperatur (RT) werden 5 µl einer 4xPGE2 Lösung (11 nM) zugegeben und in Gegenwart des Agonisten für weitere 60 min bei RT inkubiert (Volumen: - 20 µl), bevor die Reaktion anschließend durch Zugabe von 5 µl Lysispuffer gestoppt und für weitere 20 min bei RT inkubiert wird (Volumen: - 25 µl). Das Zell-Lysat wird anschließend in eine Messplatte überführt und entsprechend den Herstellerangaben (cyclic AMP kit Cisbio International # 62AMPPEC) gemessen.

[2] = target: T1, EP2-Subtyp des humanen PGE2-Rezeptors; assay: cAMP agonism test (cellular, HTRF cAMP detection, without PGE2); type: cell-based

IC50 [1]	Structure (SMILES)	further results
0.96 µM	Cc1[nH]c2c(F)ccc(C)c2c1CCNC(=O)c1ccc(-n2cccc2)cc1 [Beispiel 13, N-[2-(7-Fluor-2,4-dimethyl-1H-indol-3-yl)-ethyl]-4-pyrrol-1-yl-benzamid]	–
1 µM	Cc1[nH]c2c(F)ccc(C)c2c1CCNC(=O)c1cccc(-c2cc[nH]n2)c1 [Beispiel 15, N-[2-(7-Fluor-2,4-dimethyl-1H-indol-3-yl)-ethyl]-3-(1 H-pyrazol-3-yl)-benzamid]	Inhibition im zellulären Agonismustest [2]: keine Inhibition
1.9 µM	Cc1[nH]c2c(F)ccc(C)c2c1CCNC(=O)c1cccc(-c2cccnc2)c1 [Beispiel 20, N-[2-(7-Fluor-2,4-dimethyl-1H-indol-3-yl)-ethyl]-3-pyridin-3-yl-benzamid]	–

The remaining lines, values behind:

Structure (SMILES)	IC50 [1]	further results
CC(C)Oc1ccc2c(=O)c3cc(C(=O)O)ccc3oc2c1 [AH 6809, reference compound]	–	Unterdrückung der Kumulus Expansion (Kumulus-Eizell Komplexe; concentration 100 - 200 µM): ca. 30%
Cc1[nH]c2c(F)ccc(C)c2c1CCNC(=O)c1ccc(-c2csnn2)cc1 [Beispiel 21, N-[2-(7-Fluor-2,4-dimethyl-1H-indol-3-yl)-ethyl]-4-[1,2,3]thiadiazol-4-yl-benzamid]	–	Unterdrückung der Kumulus Expansion (Kumulus-Eizell Komplexe; concentration 10µM): 50%
